Measured values from the supplement of paper PMC11208160.

Experiment: recombinant UMI read abundance after kanamycin selection (control-corrected) (log10(CPM+1)); higher = more efficient recombination; extreme values may be limits of the assay; sequences stand for … in AGTGCAGAGAAAATCGGCCAGTTTTCTCTGCCTGCAGTCCGCATGCCGTGGGACCCCTTGGGTTCTAACCTGTTGCCTAGATTTATGCAGCGGACTGCCTTTCTCCCAAAGTGATAAACCGG…AGGTTGGTTTCACT; site = the 11-nt donor
Experimental: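 Pooled E. coli donor-specificity screen for the IS621 bridge recombinase. Each library member carries a reprogrammed 11-nt donor and a full-length LE bridge RNA expressed in cis from the natural promoter, with a paired donor-binding loop (8-nt LDG + 4-nt RDG) and a target-binding loop fixed to T5. It is co-electroporated with a T5 target plasmid; recombinase is induced with 0.07 mM IPTG and recombinants are selected on kanamycin. UMIs are counted as CPM, averaged over two biological replicates and corrected by the unselected control. Molecule = full bridge RNA written as DNA, built from the T5 scaffold: LDG = donor specificity nt 1-8, RDG = reverse complement of nt 8-11.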
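Note: IS621 bridge recombinase in Escherichia coli cells against a fixed T5 target plasmid.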

| Sequence | recombinant UMI read abundance (log10) |
| --- | --- |
| ACACGAGCATGGACCGGTTTTCCCGGTAATCCGTATTTGTC (site ACACGAACTGA) | 2.63 |
| ACACGAGCATGGACCGGTTTTCCCGGTAATCCGTATTTGTC (site ACACGACCTGA) | 0 |
| ACACGAGCATGGACCGGTTTTCCCGGTAATCCGTATTTGTC (site ACACGAGCTGA) | 2.61 |
| ACACGAGCATGGACCGGTTTTCCCGGTAATCCGTATTTGTC (site ACACGATCTGA) | 2.27 |
| ACACTAGCATGGACCGGTTTTCCCGGTAATCCGTATTTGCA (site ACACTAGCTTG) | 1.05 |
| ACACTAGCATGGACCGGTTTTCCCGGTAATCCGTATTTGCA (site ACAGTATCTTG) | 0.00925 |
| ACACTTACATGGACCGGTTTTCCCGGTAATCCGTATTTGGG (site ACACTTACTCC) | 0.464 |
| ACACTTCCATGGACCGGTTTTCCCGGTAATCCGTATTTGAC (site ACACATCCTGT) | 1.66 |
| ACACTTCCATGGACCGGTTTTCCCGGTAATCCGTATTTGAC (site ACACCTCCTGT) | 1.29 |
| ACACTTCCATGGACCGGTTTTCCCGGTAATCCGTATTTGAC (site ACACGTCCTGT) | 1.08 |
| ACACTTCCATGGACCGGTTTTCCCGGTAATCCGTATTTGAC (site ACACTTCCTGT) | 0.338 |
| ACAGAATCATGGACCGGTTTTCCCGGTAATCCGTATTTGCT (site ACAGAATCTAG) | 2.19 |
| ACAGAATCATGGACCGGTTTTCCCGGTAATCCGTATTTGCT (site ACAGTATCTTG) | 0.97 |
| ACAGAATCATGGACCGGTTTTCCCGGTAATCCGTATTTGGA (site ACAGAATCTTC) | 2.48 |
| ACAGAATCATGGACCGGTTTTCCCGGTAATCCGTATTTGGA (site ACAGTATCTTG) | 0 |
| ACAGAGACATGGACCGGTTTTCCCGGTAATCCGTATTTGCG (site ACAGAGACTCG) | 2.84 |
| ACAGAGACATGGACCGGTTTTCCCGGTAATCCGTATTTGCG (site CCAGAGACTCG) | 2.19 |
| ACAGAGACATGGACCGGTTTTCCCGGTAATCCGTATTTGCG (site GCAGAGACTCG) | 1.18 |

| Sequence | recombinant UMI read abundance (log10) |
| --- | --- |
| ACAGAGACATGGACCGGTTTTCCCGGTAATCCGTATTTGCG (site TCAGAGACTCG) | 2.18 |
| ACAGATACATGGACCGGTTTTCCCGGTAATCCGTATTTGCC (site ACAGATACTGG) | 1.19 |
| ACAGCATCATGGACCGGTTTTCCCGGTAATCCGTATTTGTA (site ACAGCATCTTA) | 2.85 |
| ACAGCATCATGGACCGGTTTTCCCGGTAATCCGTATTTGTA (site ACAGTATCTTG) | 0 |
| ACAGCGCCATGGACCGGTTTTCCCGGTAATCCGTATTTGTT (site ACAGCGCCTAA) | 0.431 |
| ACAGGGCCATGGACCGGTTTTCCCGGTAATCCGTATTTGCT (site ACAGGGCCTAG) | 1.1 |
| ACAGGTCCATGGACCGGTTTTCCCGGTAATCCGTATTTGGC (site ACAGGTCCTGC) | 1.02 |
| ACAGTAGCATGGACCGGTTTTCCCGGTAATCCGTATTTGCA (site ACAGTAACTTG) | 2.58 |
| ACAGTAGCATGGACCGGTTTTCCCGGTAATCCGTATTTGCA (site ACAGTACCTTG) | 0 |
| ACAGTAGCATGGACCGGTTTTCCCGGTAATCCGTATTTGCA (site ACAGTAGCTTG) | 2.85 |
| ACAGTAGCATGGACCGGTTTTCCCGGTAATCCGTATTTGCA (site ACAGTATCTTG) | 2 |
| ACAGTATCATGGACCGGTTTTCCCGGTAATCCGTATTTGCT (site ACAGTATCTAG) | 2.8 |
| ACAGTATCATGGACCGGTTTTCCCGGTAATCCGTATTTGCT (site ACAGTATCTCG) | 1.11 |
| ACAGTATCATGGACCGGTTTTCCCGGTAATCCGTATTTGCT (site ACAGTATCTGG) | 2.29 |
| ACAGTATCATGGACCGGTTTTCCCGGTAATCCGTATTTGCT (site ACAGTATCTTG) | 2.22 |
| ACAGTCTCATGGACCGGTTTTCCCGGTAATCCGTATTTGGA (site ACAGTATCTTG) | 0 |
| ACAGTCTCATGGACCGGTTTTCCCGGTAATCCGTATTTGGA (site ACAGTCTCTTC) | 2.89 |
| ACAGTGGCATGGACCGGTTTTCCCGGTAATCCGTATTTGCG (site ACAGTGGCTCG) | 1.93 |
